Data: patent US6297216A, “Compounds for reversing drug resistance” (Solvo Biotechnology, priority 1997, dated 2001)
Read-outs that look alike come from different tables or passages of the source. Blank lines part the entries; values can stand above or below the molecule they belong to. Peptide text beside a SMILES is read from it. * marks the point of attachment. Cbz = O=C(OCc1ccccc1)*; Boc = CC(C)(C)OC(=O)*; OBn = c1ccc(CO*)cc1; OtBu = CC(C)(C)O*

Experiments:
[1] = test system: multidrug-resistant human tumor cell lines; test: Enhancement of cytotoxicity of drugs in multidrug-resistant human tumor cell lines; format: cell-based; conditions: K562 MDR and KBV1 sublines, FIGS. 10-11
Protocol: (§1) NIH 3T3 cells were cultured under standard conditions in D-MEM medium. MDR1-transfected cells (NIH MDR1 G185) were prepared and characterized for their drug-resistant properties as described (Ambdukar et al. Proc. Natl. Acad. Sci. USA 89:8472-8476, 1992; Bruggemann et al. J. Biol. Chem. 267:21020-21026, 1992; Sarkadi et al. 1992 supra). Before each experiment the cells were trypsinized, then washed and stored in D-MEM medium at 37° C. KBV1 (MDR1^+) and KB3 (MDR1^-) human tumor cells were also cultured in D-MEM, which K562 human tumor cells were grown in RPMI medium, supplemented with 10% FCS.
Another method for assessing the ability of Reversins to inhibit drug resistance is to measure the cytotoxicity of drugs in multidrug-resistant human tumor cell lines. Since MDR1 normally lowers the concentration of cytotoxic agents to subtoxic concentrations by extruding them from the cell, inhibition of MDR1 would be expected to enhance cytotoxicity.
In these studies, adriamycin, vincristine, and vinblastine, in originally ineffective concentrations, become effectively cytotoxic in the presence of 1-10 μg/ml of Reversins 121 or 205. FIGS. 10A and 10B present such an experiment for Reversin 205 using K562 human erythroblastoid tumor cells and their adriamycin-selected multidrug-resistant subline. […]

[2] = test system: KBV1 cells; test: Cytotoxicity of Reversin alone in multidrug-resistant KBV1 cells; format: cell-based, human; conditions: MDR1-expressing cells, FIG. 11(A)
Protocol: as §1
In these studies, adriamycin, vincristine, and vinblastine, in originally ineffective concentrations, become effectively cytotoxic in the presence of 1-10 μg/ml of Reversins 121 or 205. FIGS. 10A and 10B present such an experiment for Reversin 205 using K562 human erythroblastoid tumor cells and their adriamycin-selected multidrug-resistant subline. FIGS. 11A and 11B are similar experiments with the […] tumor cells KB3 and KBV1, the latter being a multidrug resistant subline. […] Such a collateral toxic effect (which may be due to the ATP-consuming futile functioning of the drug transporter) can be greatly advantageous in treating drug-resistant tumors.

[3] = In vivo acute and subacute toxicity; set-up: species or system rat; conditions: rats, two-week follow-up
Protocol: The safety of Reversins for human administration can be confirmed in appropriate animal models. For example, the in vivo acute and subacute toxicity of Reversins was examined in laboratory rats. Reversins 121 and 205 solutions were prepared and administered as follows. Type A solutions contained 50 μg/ml Reversin 121 or 205 in 20% ethanol in physiological saline. Type B solutions contained 1 mg/ml in glycerol, containing 10% ethanol. Type A solutions (0.5 ml) were administered intravenously to three laboratory rats weighing 200-250 g each (about 100-125 μg/kg) twice daily for 3 days. Type B solutions (0.5 ml) were given to similar rats (2-2.5 mg/kg) by intraperitoneal injection, twice daily for three days. Control rats received the same solutions without the Reversins.

[4] = biological target: T1, MDR1 (Homo sapiens, UniProt P08183)
[5] = biological target: T1, MDR1; remark: listed apart in the source
Source text: (§5) The second assay is based on the measurement of fluorescent dye uptake into intact cells. […] These hydrophobic dye esters are non-fluorescent outside the cell are cleaved by intracellular esterases into hydrophilic fluorescent free acids.

[6] = biological target: T1, MDR1; test: Flow-cytometric fluorescent dye uptake in multidrug-resistant leukocytes of a leukemic patient; format: cell-based; set-up: endogenous in cells; host or cells: white blood cells isolated from the blood of a leukemic patient; conditions: 5 μM, 37° C., 10 minutes, FIG. 8
Protocol: Fluorescence measurements were done in 60 sec scanning periods using a Cytoronabsolut instrument (Ortho Diagnostic Systems, NJ). The excitation was set to 488 nm. Green fluorescence was measured with a filter with a range of 515-548 nm, while red fluorescence was measured above 620 nm.
By using the some fluorescent dye extrusion assay described above the in vitro effects of Reversins on the multidrug-resistant leukocytes of a leukemic patient were studied. Cells were isolated by withdrawing blood from the patient, and isolating white blood cells by centrifugation. Cells can be isolated from other types of tumors by biopsy. A flow cytometer was used to measure fluorescent dye loading of individual cells, which had been previously shown to express MDR1, in the absence or presence of Reversin 205 (FIG. 8). The uptake of fluorescent dye under these conditions models the uptake of cytotoxic drugs into the tumor cells. Fluorescent dye uptake was measured at 37° C. for 10 minutes. […] Further details for the method are provided by Hollo et al., supra.

[7] = test system: control P388 cells; test: Mouse P388 leukemia model, survival; format: in vivo; conditions: 1 mg/kg/day for 6 days, mice injected with control P388 cells
Source text: (§2) In vivo animal studies for the effectiveness of Reversins can be conducted using any suitable animal model system known to those skilled in the art. One example of an appropriate system is the mouse P388 leukemia model system (Tsurouo et al., supra). This animal model is widely accepted for testing the effect of cytotoxic antileukemic agents or response-modifier compounds.
(§3) Inbred (DBA×black F1) mice received 10^6 P388 leukemia cells by intraperitoneal injection. The survival of the mice was followed. The mice were injected with control P388 cells, as well as with P388 cells that had been selected under drug exposure. Drug exposure induced over-expression of the MDR1 protein (P388-MDR cells).
(§4) The mice injected with the P388 cells were treated with doxorobicin (adriamycin) in a dose of 1 mg/kg/day for 6 days after the injection of the P388 cells. […] Reversin can be administered to the animals in a dose of 2 mg/kg, a level which has no toxic effect on the control animals, as discussed above.

[8] = test system: P388-MDR cells; test: Mouse P388-MDR leukemia model, survival; format: in vivo; conditions: 1 mg/kg/day for 6 days, mice injected with P388-MDR cells
Source text: as §2, §3, §4

[9] = test system: control NIH 3T3 cells; test: Fluorescent dye accumulation in fibroblasts which do not overexpress MDR1; format: cell-based, mouse; conditions: fibroblasts which do not overexpress MDR1, FIG. 6
Protocol: NIH 3T3 cells were cultured under standard conditions in D-MEM medium. […] Before each experiment the cells were trypsinized, then washed and stored in D-MEM medium at 37° C. KBV1 (MDR1^+) and KB3 (MDR1^-) human tumor cells were also cultured in D-MEM, which K562 human tumor cells were grown in RPMI medium, supplemented with 10% FCS.
Human MDR1-transfected mouse fibroblasts and MDR1-expressing human tumor cells actively extrude the AM forms of several fluorescent indicators, lowering the level of intracellular fluorescence in cells with active multidrug transport.
Dye uptake was measured by incubating 2×10^6 cells/ml D-MEM medium at 37° C. in the presence of 0.5 μM Fura-2 AM (added in 5 mM stock solution in DMSO), then rapidly spinning the cells (15 sec, 12,000×g), and rinsing the pellet with HPM1 medium (containing 120 mM NaCl, 5 mM kcl, 0.4 mM MgCl2, 0.04 mM CaCl2, 10 mM HEPES-Na (pH 7.4), 10 mM NaHCO3, 10 mM glucose, and 5 mM Na2 HPO4). The cells were resuspended in 2 ml HPM1 and fluorescence was measured with rapid stirring in a Hitachi F-4000 fluorescent spectrophotometer. The excitation wavelength was 340 nm, and emission was measured at 410 nm. Maximum fluorescence and dye concentration were measured after the addition of 0.5% Triton X-100 and 2 mM CaCl2 to the medium. The dye concentration was calibrated based on the measurements of free acid dye fluorescence in the same instrument under identical conditions.

[10] = biological target: T1, MDR1; test: Fluorescent dye (Fura-2 AM) extrusion assay in MDR1-transfected NIH 3T3 fibroblasts; conditions: MDR1-expressing fibroblasts, FIG. 6
Source text: as §5

[11] = intraperitoneal, 2-2.5 mg/kg twice daily for three days
[12] = intravenous, about 100-125 μg/kg twice daily for 3 days

T1 sequence (P08183 whole entry): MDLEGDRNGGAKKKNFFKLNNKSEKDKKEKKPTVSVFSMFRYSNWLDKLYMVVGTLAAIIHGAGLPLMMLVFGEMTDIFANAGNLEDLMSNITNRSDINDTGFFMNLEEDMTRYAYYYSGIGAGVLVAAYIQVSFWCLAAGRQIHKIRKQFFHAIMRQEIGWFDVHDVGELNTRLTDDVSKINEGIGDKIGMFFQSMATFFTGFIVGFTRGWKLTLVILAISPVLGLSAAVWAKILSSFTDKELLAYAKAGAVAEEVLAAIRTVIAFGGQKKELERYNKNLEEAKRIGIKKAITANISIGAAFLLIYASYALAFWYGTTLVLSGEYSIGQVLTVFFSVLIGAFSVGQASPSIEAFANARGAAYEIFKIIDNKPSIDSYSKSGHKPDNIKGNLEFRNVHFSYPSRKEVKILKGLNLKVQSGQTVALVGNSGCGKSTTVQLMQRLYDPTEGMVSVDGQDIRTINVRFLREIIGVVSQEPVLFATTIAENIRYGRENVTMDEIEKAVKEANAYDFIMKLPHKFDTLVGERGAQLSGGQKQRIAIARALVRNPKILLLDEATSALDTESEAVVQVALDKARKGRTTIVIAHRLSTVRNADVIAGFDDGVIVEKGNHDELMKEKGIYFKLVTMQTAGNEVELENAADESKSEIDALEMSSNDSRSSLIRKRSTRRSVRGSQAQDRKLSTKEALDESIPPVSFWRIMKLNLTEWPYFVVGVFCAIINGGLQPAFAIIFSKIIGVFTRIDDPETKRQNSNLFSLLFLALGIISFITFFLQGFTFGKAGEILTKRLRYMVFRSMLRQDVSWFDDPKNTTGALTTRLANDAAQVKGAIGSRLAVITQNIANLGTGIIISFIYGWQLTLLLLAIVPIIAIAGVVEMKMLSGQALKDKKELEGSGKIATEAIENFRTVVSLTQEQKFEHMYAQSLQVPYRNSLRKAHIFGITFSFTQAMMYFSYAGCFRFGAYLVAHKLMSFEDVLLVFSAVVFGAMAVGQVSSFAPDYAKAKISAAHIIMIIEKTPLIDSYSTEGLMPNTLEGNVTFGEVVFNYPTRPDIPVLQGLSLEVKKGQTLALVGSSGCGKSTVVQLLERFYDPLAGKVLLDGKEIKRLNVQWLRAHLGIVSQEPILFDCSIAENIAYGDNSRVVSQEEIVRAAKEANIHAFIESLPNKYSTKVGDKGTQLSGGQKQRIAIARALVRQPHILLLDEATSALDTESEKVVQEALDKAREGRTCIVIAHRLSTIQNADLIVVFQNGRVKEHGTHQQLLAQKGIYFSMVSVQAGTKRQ

Structure (SMILES): CC(C)(C)OC(=O)N[C@@H](CC(=O)OCc1ccccc1)C(=O)N[C@@H](CCCCNC(=O)OCc1ccccc1)C(=O)OC(C)(C)C [Reversin 121, BOC-Asp(OBzl)-Lys(Z)-OtBu] (Boc-Asp(OBn)-Lys(Cbz)-OtBu)
Reversin concentration at which originally ineffective adriamycin, vincristine and vinblastine become effectively cytotoxic [1]: 1 to 10 µg/mL
cytotoxicity without vinblastine [2]: cytotoxic
acute or subacute toxicity [3, 11]: no acute or subacute toxicity
acute or subacute toxicity [3, 12]: no acute or subacute toxicity
half-maximal activating concentration (Ka) of MDR1-ATPase [4]: approximately 60 nM
stimulation of MDR1-ATPase [4]: greatly stimulated
inhibition of Fura2-AM dye extrusion [5]: inhibit this dye extrusion

Structure (SMILES): COC(=O)[C@H](CCCCNC(=O)[C@H](CCC(=O)OCc1ccccc1)NC(=O)OC(C)(C)C)NC(=O)[C@H](CCC(=O)OCc1ccccc1)NC(=O)OC(C)(C)C [Reversin 205, N^α, N^ε -bis[BOC-Glu(OBzl)]-Lys-OMe]
Reversin concentration at which originally ineffective adriamycin, vincristine and vinblastine become effectively cytotoxic [1]: 1 to 10 µg/mL
acute or subacute toxicity [3, 11]: no acute or subacute toxicity
acute or subacute toxicity [3, 12]: no acute or subacute toxicity
concentration giving strong inhibition of the MDR1-ATPase [4]: above 1 μM
half-maximal activating concentration (Ka) of MDR1-ATPase [4]: about 30 nM
stimulation of MDR1-ATPase [4]: greatly stimulated
inhibition of Fura2-AM dye extrusion [5]: inhibit this dye extrusion
dye extrusion by MDR1 [6]: blocked dye extrusion
fluorescent dye uptake [6]: significantly increased

Structure (SMILES): COc1cccc2c1C(=O)c1c(O)c3c(c(O)c1C2=O)C[C@@](O)(C(=O)CO)C[C@@H]3O[C@H]1C[C@H](N)[C@H](O)[C@H](C)O1 [adriamycin]
survival time [7]: > 30 days
prolongation of lifetime [8]: did not significantly prolong

stimulation of MDR1-ATPase [4]: stimulated
Structure (SMILES): C=C[C@H]1C[N@@]2CC[C@H]1C[C@H]2[C@H](O)c1ccnc2ccc(OC)cc12 [quinine, reference compound]

block of MDR1-specific dye-AM extrusion [10]: blocked
Structure (SMILES): [Na+].[Na+].[Na+].[O]=[V]([O-])([O-])[O-] [sodium orthovanadate]
effect on dye accumulation [9]: no effect

Structure (SMILES): COc1ccc(CCN(C)CCCC(C#N)(c2ccc(OC)c(OC)c2)C(C)C)cc1OC (centres unmarked) [verapamil]
effect on dye accumulation [9]: no effect

stimulation of MDR1-ATPase [4]: stimulated
block of MDR1-specific dye-AM extrusion [5]: blocked
inhibition of Fura2-AM dye extrusion [5]: inhibit this dye extrusion
Structure (SMILES): CC[C@]1(O)C[C@H]2CN(CCc3c([nH]c4ccccc34)[C@@](C(=O)OC)(c3cc4c(cc3OC)N(C=O)[C@H]3[C@@](O)(C(=O)OC)[C@H](OC(C)=O)[C@]5(CC)C=CCN6CC[C@]43[C@@H]65)C2)C1 [vincristine, reference compound]
effect on dye accumulation [9]: no effect
